# Results: patent publication US9376442B2, “Methylpyrrolopyrimidinecarboxamides” (Takeda GmbH, priority 2009, dated 2016)
# Biological target: T1, PDE5A1 (Homo sapiens, UniProt O76074)
# T1 construct: from tissue; host or cells: human platelets from fresh donor blood (10,000 x g supernatant of sonicated lysate)
# Experiment: Inhibition of type 5 phosphodiesterase (PDE5) activity, modified SPA test with human platelet lysate
# Type: biochemical
# Conditions: 0.5 μM cGMP, read-out: PDE5A1 inhibitory values [measured as −log IC50 (mol/l)] (converted)
# Protocol: Method for Measuring Inhibition of the Type 5 Phosphodiesterase (PDE5) Activity:
# As a source for human PDE5, platelets are used. For that purpose, 150 ml fresh blood from human donors anticoagulated with citrate [final concentration 0.3% (w/v)] is centrifuged at 200 g for 10 min to obtain the so-called platelet-rich-plasma (PRP) as a supernatant. 1/10 volume of ACD solution (85 mM Na3-citrate, 111 mM D-glucose, 71 mM citric acid, pH 4.4) is added to 9/10 volume of PRP. After centrifugation (1,400 g, 10 min) the cell pellet is resuspended in 3 ml homogenization buffer (NaCl 140 mM, KCl 3.8 mM, EGTA (ethylene glycol tetraacetic acid) 1 mM, MgCl2 1 mM, Tris-HCl 20 mM, beta-mercaptoethanol 1 mM, pH 8.2) plus protease-inhibitor mix giving rise to the final concentrations of 0.5 mM Pefablock (Roche), 10 μM Leupeptin, 5 μM Trypsininhibitor, 2 mM Benzamidin and 10 μM Pepstatin A. The suspension is sonified and thereafter centrifuged for 15 min at 10,000 g. The resulting supernatant (platelet lysate) is used for enzymatic testings.
# PDE5A1 activity is inhibited by the compounds of the present subject matter in a modified SPA (scintillation proximity assay) test, supplied by Amersham Biosciences (see procedural instructions “phosphodiesterase [3H]cAMP SPA enzyme assay, code TRKQ 7090”), carried out in 96-well microtitre plates (MTP's). The test volume is 100 μl and contains 20 mM Tris buffer (pH 7.4), 0.1 mg of BSA (bovine serum albumin)/ml, 5 mM Mg^2+, 1 μM motapizone, 10 nM PDE2 inhibitor 2-(3,4-dimethoxybenzyl)-7-[(1R,2R)-2-hydroxy-1-(2-phenylethyl)propyl]-5-methylimidazo[5,1-f][1,2,4]triazin-4(3H)-one, 0.5 μM cGMP (cyclic guanosine monophosphate) (including about 50,000 cpm of [3H]cGMP as a tracer), 1 μl of the respective compound dilution in dimethylsulfoxide (DMSO) and sufficient PDE5-containing platelet lysat (10,000×g supernatant, see above) to ensure that 10-20 wt % of the cGMP is converted under the said experimental conditions. […] After a preincubation of 5 min at 37° C., the reaction is started by adding the substrate (cGMP) and the assay is incubated for a further 15 min; after that, it is stopped by adding SPA beads (50 μl). In accordance with the manufacturer's instructions, the SPA beads had previously been resuspended in water, but are then diluted 1:3 (v/v) in water; the diluted solution also contains 3 mM […] (IBMX) to ensure a complete PDE activity stop. After the beads have been sedimented (>30 min), the MTP's are analyzed in commercially available luminescence detection devices. The corresponding IC50 values of the compounds for the inhibition of PDE activity are determined from the concentration-effect curves by means of non-linear regression.
row,IC50 [nM],SMILES
1,< 1,"COCC(=O)N1CCC(NC(=O)c2c(C)[nH]c3c(-c4cc(OC)c(F)cc4OCC4CC4)nc(C)nc23)CC1 [Example E175, 4-[2-(Cyclopropylmethoxy)-4-fluoro-5-methoxyphenyl]-N-[1-(methoxyacetyl)piperidin-4-yl]-2,6-dimethyl-5H-pyrrolo[3,2-d]pyrimidine-7-carboxamide]"
2,< 1,"COc1cc(OCC2CC2)c(-c2nc(C)nc3c(C(=O)NC4CCN(C(=O)[C@H](C)O)CC4)c(C)[nH]c23)cc1F [Example F108, 4-[2-(Cyclopropylmethoxy)-5-fluoro-4-methoxyphenyl]-N-{1-[(2S)-2-hydroxypropanoyl]piperidin-4-yl}-2,6-dimethyl-5H-pyrrolo[3,2-d]pyrimidine-7-carboxamide]"
3,1 to 10,"Cc1[nH]c2c(-c3ccc(F)cc3OCC3CC3)ncnc2c1C(=O)N[C@@H]1CN(C(=O)CO)C[C@H]1O (relative stereo) [Example F19, 4-[2-(Cyclopropylmethoxy)-4-fluorophenyl]-N-[(3R*,4R*)-4-hydroxy-1-(hydroxyacetyl)pyrrolidin-3-yl]-6-methyl-5H-pyrrolo[3,2-d]pyrimidine-7-carboxamide]"
4,< 1,"COCC(=O)N[C@H]1CC[C@@H](NC(=O)c2c(C)[nH]c3c(-c4ccc(F)cc4OCC4CC4)ncnc23)CC1 [Example E27, 4-[2-(Cyclopropylmethoxy)-4-fluorophenyl]-N-{cis-4-[(methoxyacetyl)amino]cyclohexyl}-6-methyl-5H-pyrrolo[3,2-d]pyrimidine-7-carboxamide]"
5,1 to 10,"CCOc1ccc(F)cc1-c1ncnc2c(C(=O)NC3CCN(C(=O)COC)CC3)c(C)[nH]c12 [Example E54, 4-(2-Ethoxy-5-fluorophenyl)-N-[1-(methoxyacetyl)piperidin-4-yl]-6-methyl-5H-pyrrolo[3,2-d]pyrimidine-7-carboxamide]"
6,< 1,"CCC(=O)N[C@H]1CC[C@@H](NC(=O)c2c(C)[nH]c3c(-c4ccc(F)cc4OCC4CC4)ncnc23)CC1 [Example E26, 4-[2-(Cyclopropylmethoxy)-4-fluorophenyl]-6-methyl-N-[cis-4-(propionylamino)cyclohexyl]-5H-pyrrolo[3,2-d]pyrimidine-7-carboxamide]"
7,< 1,"COCC(=O)N[C@H]1CC[C@H](NC(=O)c2c(C)[nH]c3c(-c4cc(OC)c(F)cc4OCC4CC4)ncnc23)CC1 [Example E108, 4-[2-(Cyclopropylmethoxy)-4-fluoro-5-methoxyphenyl]-N-{trans-4-[(methoxyacetyl)amino]cyclohexyl}-6-methyl-5H-pyrrolo[3,2-d]pyrimidine-7-carboxamide]"
8,< 1,"CC(=O)c1ccc(OCC2CC2)c(-c2ncnc3c(C(=O)N[C@H]4CC[C@H](NC(=O)CO)CC4)c(C)[nH]c23)c1 [Example F104, 4-[5-Acetyl-2-(cyclopropylmethoxy)phenyl]-N-{trans-4-[(hydroxyacetyl)amino]cyclohexyl}-6-methyl-5H-pyrrolo[3,2-d]pyrimidine-7-carboxamide]"
9,< 1,"CC(=O)N[C@H]1CC[C@@H](NC(=O)c2c(C)[nH]c3c(-c4cc(C)c(F)cc4OCC4CC4)ncnc23)CC1 [Example E125, N-[cis-4-(Acetylamino)cyclohexyl]-4-[2-(cyclopropylmethoxy)-4-fluoro-5-methylphenyl]-6-methyl-5H-pyrrolo[3,2-d]pyrimidine-7-carboxamide]"
10,< 1,"COc1cc(-c2ncnc3c(C(=O)N[C@@H]4CN(C(=O)CO)C[C@H]4O)c(C)[nH]c23)c(OCC2CC2)cc1F (relative stereo) [Example F113, 4-[2-(Cyclopropylmethoxy)-4-fluoro-5-methoxyphenyl]-N-[(3R*,4R*)-1-glycoloyl-4-hydroxypyrrolidin-3-yl]-6-methyl-5H-pyrrolo[3,2-d]pyrimidine-7-carboxamide]"
11,< 1,"COc1ccc(-c2ncnc3c(C(=O)N[C@@H]4CN(C(C)=O)C[C@H]4O)c(C)[nH]c23)c(OCC2CC2)c1 (relative stereo) [Example E63, N-[(3R*,4R*)-1-acetyl-4-hydroxypyrrolidin-3-yl]-4-[2-(cyclopropylmethoxy)-4-methoxyphenyl]-6-methyl-5H-pyrrolo[3,2-d]pyrimidine-7-carboxamide]"
12,< 1,"COc1cc(OCC2CC2)c(-c2ncnc3c(C(=O)N[C@H]4CC[C@@H](NC(C)=O)CC4)c(C)[nH]c23)cc1F [Example E138, N-(cis-4-Acetamidocyclohexyl)-4-[2-(cyclopropylmethoxy)-5-fluoro-4-methoxyphenyl]-6-methyl-5H-pyrrolo[3,2-d]pyrimidine-7-carboxamide]"
13,< 1,"COCC(=O)N[C@H]1CC[C@@H](NC(=O)c2c(C)[nH]c3c(-c4c(OCC5CC5)ccc5c4OCO5)ncnc23)CC1 [Example E11, 4-[5-(Cyclopropylmethoxy)-1,3-benzodioxol-4-yl]-N-{cis-4-[(methoxyacetyl)amino]cyclohexyl}-6-methyl-5H-pyrrolo[3,2-d]pyrimidine-7-carboxamide]"
14,< 1,"CCc1ccc(OCC2CC2)c(-c2ncnc3c(C(=O)NC4CCN(C(=O)[C@H](C)O)CC4)c(C)[nH]c23)c1 [Example F92, 4-[2-(Cyclopropylmethoxy)-5-ethylphenyl]-N-{1-[(2S)-2-hydroxypropanoyl]piperidin-4-yl}-6-methyl-5H-pyrrolo[3,2-d]pyrimidine-7-carboxamide]"
15,< 1,"COc1ccc(OCC2CC2)c(-c2ncnc3c(C(=O)NC4CCN(C(=O)C(C)O)CC4O)c(C)[nH]c23)c1 (mixture of isomers) [Example F50, Diastereomeric mixture of 4-[2-(Cyclopropylmethoxy)-5-methoxyphenyl]-N{(3R,4R)-3-hydroxy-1-[(2S)-2-hydroxypropanoyl]piperidin-4-yl}-6-methyl-5H-pyrrolo[3,2-d]pyrimidine-7-carboxamide and 4-[2-(Cyclopropylmethoxy)-5-methoxyphenyl]-N-{(3S,4S)-3-hydroxy-1-[(2S)-2-hydroxypropanoyl]piperidin-4-yl}-6-methyl-5H-pyrrolo[3,2-d]pyrimidine-7-carboxamide]"
16,1 to 10,"Cc1[nH]c2c(-c3cc(F)ccc3OCC3CC3)ncnc2c1C(=O)N[C@@H]1CCN(C(=O)CO)C1 [Example F28, 4-[2-(Cyclopropylmethoxy)-5-fluorophenyl]-N-[(3R)-1-(hydroxyacetyl)pyrrolidin-3-yl]-6-methyl-5H-pyrrolo[3,2-d]pyrimidine-7-carboxamide]"
17,< 1,"COc1cc(OCC2CC2)c(-c2ncnc3c(C(=O)N[C@@H]4CCN(C(=O)[C@H](C)O)C4)c(C)[nH]c23)cc1F [Example F116, 4-[2-(Cyclopropylmethoxy)-5-fluoro-4-methoxyphenyl]-N-{(3R)-1-[(2S)-2-hydroxypropanoyl]pyrrolidin-3-yl}-6-methyl-5H-pyrrolo[3,2-d]pyrimidine-7-carboxamide]"
18,< 1,"CCC(=O)N[C@H]1CC[C@@H](NC(=O)c2c(C)[nH]c3c(-c4cc(C)c(F)cc4OCC4CC4)ncnc23)CC1 [Example E126, 4-[2-(Cyclopropylmethoxy)-4-fluoro-5-methylphenyl]-6-methyl-N-[cis-4-(propanoylamino)cyclohexyl]-5H-pyrrolo[3,2-d]pyrimidine-7-carboxamide]"
19,1 to 10,"COCC(=O)N1CC[C@@H](NC(=O)c2c(C)[nH]c3c(-c4cc(F)ccc4OCC4CC4)ncnc23)C1 [Example E48, 4-[2-(Cyclopropylmethoxy)-5-fluorophenyl]-N-[(3R)-1-(methoxyacetyl)pyrrolidin-3-yl]-6-methyl-5H-pyrrolo[3,2-d]pyrimidine-7-carboxamide]"
